What follows are molecules tested against C5aR (Homo sapiens (Human), UniProt P21730) (assay: Chemotaxis assay using U937 cells (C5aR mediated migration)). Conditions: read-out: Mig IC50.
Assay type: cell-based
Outline: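 U937 monocytic cells, pretreated overnight with 0.5 mM cyclic AMP, placed at 100,000 cells in the upper well above 5 μm polycarbonate filters. Lower well held 0.03 nM C5a plus compound in HBSS/1% FBS; after 1.5 h at 37° C migrated cells counted directly or by CyQuant, giving IC50.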

Sequence of C5aR (P21730 whole entry): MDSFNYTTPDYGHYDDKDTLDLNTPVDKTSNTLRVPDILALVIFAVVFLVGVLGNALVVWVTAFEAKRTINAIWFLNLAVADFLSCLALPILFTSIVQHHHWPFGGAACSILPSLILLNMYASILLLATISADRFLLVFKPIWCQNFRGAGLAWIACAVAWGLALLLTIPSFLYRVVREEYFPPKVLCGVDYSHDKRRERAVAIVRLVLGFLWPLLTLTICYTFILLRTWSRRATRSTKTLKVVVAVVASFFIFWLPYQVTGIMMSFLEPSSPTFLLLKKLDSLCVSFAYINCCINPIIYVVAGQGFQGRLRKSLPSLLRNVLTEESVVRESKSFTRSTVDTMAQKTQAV

| IC50 | Structure (SMILES) |
| --- | --- |
| ≤ 5 nM | Cc1cccc(OCC(C)C)c1-n1nc2c(c1-c1cc(F)c(NC(N)=O)cc1F)CN(c1ncc(C3CC3)cc1F)CC2 [Example 1.172] |
| ≤ 5 nM | Cc1cccc(OCC(C)C)c1-n1nc2c(c1-c1cc(F)c(NC(N)=O)cc1F)CN(c1ncc(Cl)cc1F)CC2 [Example 1.173] |
| ≤ 5 nM | Cc1cccc(C)c1-n1nc2c(c1-c1cc(F)c(NC(N)=O)cc1F)CN(c1ncc(C(F)(F)F)cc1F)CC2 [Example 1.174] |
| ≤ 5 nM | Cc1cccc(OCC(C)C)c1-n1nc2c(c1-c1cc(F)c(NC(N)=O)cc1F)CN(c1ncc(Cl)cn1)CC2 [Example 1.175] |
| ≤ 5 nM | Cc1cccc(F)c1-n1nc2c(c1-c1cc(F)c(NC(N)=O)cc1F)CN(c1ncc(Cl)cc1Cl)CC2 [Example 1.176] |
| ≤ 5 nM | Cc1cc(N2CCc3nn(-c4c(C)cccc4OCC(C)C)c(-c4cc(F)c(NC(N)=O)cc4F)c3C2)ncc1Cl [Example 1.177] |
| ≤ 5 nM | Cc1cccc(OCC(C)C)c1-n1nc2c(c1-c1cc(F)c(NC(N)=O)cc1F)CN(c1ncccc1F)CC2 [Example 1.178] |
| 5 to 50 nM | COc1cccc(F)c1-n1nc2c(c1-c1cc(F)c(NC(N)=O)cc1F)CN(c1ncc(Cl)cc1Cl)CC2 [Example 1.179] |
| ≤ 5 nM | Cc1cccc(C)c1-n1nc2c(c1-c1cc(F)c(NC(N)=O)cc1F)CN(c1ncc(Cl)cc1Cl)CC2 [Example 1.180] |
| ≤ 5 nM | CCc1cccc(CC)c1-n1nc2c(c1-c1cc(F)c(NC(N)=O)cc1F)CN(C(C)c1cccc(F)c1)CC2 (centres unmarked) [Example 1.181] |
| ≤ 5 nM | Cc1cccc(OCC(C)C)c1-n1nc2c(c1-c1cc(F)c(NC(N)=O)cc1F)CN(c1ccc(Cl)cn1)CC2 [Example 1.182] |
| 5 to 50 nM | NC(=O)Nc1cc(F)c(-c2c3c(nn2-c2c(F)cccc2F)CCN(c2ncc(Cl)cc2Cl)C3)cc1F [Example 1.183] |
| ≤ 5 nM | COc1cccc(C)c1-n1nc2c(c1-c1cc(F)c(NC(N)=O)cc1F)CN(c1ncc(Cl)cc1Cl)CC2 [Example 1.184] |
| ≤ 5 nM | Cc1cc(C(C)C)cnc1N1CCc2nn(-c3c(C)cccc3OCC(C)C)c(-c3cc(F)c(NC(N)=O)cc3F)c2C1 [Example 1.185] |
| ≤ 5 nM | CCc1cccc(CC)c1-n1nc2c(c1-c1cc(F)c(NC(N)=O)cc1F)CN(C(C)(C)c1ccccc1F)CC2 [Example 1.186] |
| 5 to 50 nM | NC(=O)Nc1cc(F)c(-c2c3c(nn2-c2c(Cl)cccc2Cl)CCN(c2ncc(Cl)cc2Cl)C3)cc1F [Example 1.187] |
| ≤ 5 nM | CC(C)COc1cccc(F)c1-n1nc2c(c1-c1cc(F)c(NC(N)=O)cc1F)CN(c1ncc(Cl)cc1Cl)CC2 [Example 1.188] |
| ≤ 5 nM | CC(C)COc1ccccc1-n1nc2c(c1-c1cc(F)c(NC(N)=O)cc1F)CN(c1ncc(Cl)cc1Cl)CC2 [Example 1.189] |
| ≤ 5 nM | Cc1cnc(N2CCc3nn(-c4c(C)cccc4OCC(C)C)c(-c4cc(F)c(NC(N)=O)cc4F)c3C2)c(Cl)c1 [Example 1.190] |
| ≤ 5 nM | Cc1cccc(OCC(C)C)c1-n1nc2c(c1-c1cc(F)c(NC(N)=O)cc1F)CN(c1ncccc1C(C)C)CC2 [Example 1.191] |
| ≤ 5 nM | CCc1cccc(CC)c1-n1nc2c(c1-c1cc(F)c(NC(N)=O)cc1F)CN(C(C)(C)c1ccc(F)cc1)CC2 [Example 1.192] |
| ≤ 5 nM | Cc1cccc(OCC(C)C)c1-n1nc2c(c1-c1cc(F)c(NC(N)=O)cc1F)CN(c1ccc(Cl)cc1Cl)CC2 [Example 1.194] |

| IC50 | Structure (SMILES) |
| --- | --- |
| ≤ 5 nM | CCc1cccc(CC)c1-n1nc2c(c1-c1cc(F)c(NC(N)=O)cc1F)CN(C(C)(C)c1cccc(F)c1)CC2 [Example 1.195] |
| ≤ 5 nM | Cc1cccc(OCC(C)C)c1-n1nc2c(c1-c1cc(F)c(NC(N)=O)cc1F)CN(C(c1ccccc1)C(F)(F)F)CC2 (centres unmarked) [Example 1.196] |
| ≤ 5 nM | CCc1cccc(CC)c1-n1nc2c(c1-c1cc(F)c(NC(N)=O)cc1C)CN(C(C)c1ccccc1C(F)(F)F)CC2 (centres unmarked) [Example 1.197] |
| ≤ 5 nM | CC(C)COc1cccc(F)c1-n1nc2c(c1-c1cc(F)c(NC(N)=O)cc1F)CN(C(C)(C)c1ccccc1)CC2 [Example 1.198] |
| ≤ 5 nM | CC(C)COc1ccccc1-n1nc2c(c1-c1cc(F)c(NC(N)=O)cc1F)CN(C(C)(C)c1ccccc1)CC2 [Example 1.199] |
| ≤ 5 nM | CCc1cccc(CC)c1-n1nc2c(c1-c1cc(F)c(NC(N)=O)cc1F)CN(C(C)(C)c1ccccc1)CC2 [Example 1.200] |
| ≤ 5 nM | CCc1cccc(CC)c1-n1nc2c(c1-c1cc(F)c(NC(N)=O)cc1F)CN(c1ncc(Cl)cc1Cl)CC2 [Example 1.201] |
| ≤ 5 nM | Cc1cccc(OCC(C)C)c1-n1nc2c(c1-c1cc(F)c(NC(N)=O)cc1F)CN(c1ncc(C(C)C)cc1F)CC2 [Example 1.202] |
| ≤ 5 nM | CC(C)COc1cccc(F)c1-n1nc2c(c1-c1cc(F)c(NC(N)=O)cc1F)CN(c1ncc(C(F)(F)F)cc1F)CC2 [Example 1.203] |
| 5 to 50 nM | CCc1cccc(CC)c1-n1nc2c(c1-c1cc(F)c(NC(N)=O)cc1F)CN(C(C)(C)C)CC2 [Example 1.204] |
| ≤ 5 nM | CC(C)COc1ccccc1-n1nc2c(c1-c1cc(F)c(NC(N)=O)cc1F)CN(c1ncc(C(F)(F)F)cc1F)CC2 [Example 1.205] |
| ≤ 5 nM | Cc1cc(Cl)cnc1N1CCc2nn(-c3c(C)cccc3OCC(C)C)c(-c3ccc(NC(N)=O)c(F)c3)c2C1 [Example 1.206] |
| ≤ 5 nM | Cc1cccc(OCC(C)C)c1-n1nc2c(c1-c1cc(F)c(NC(N)=O)cc1F)CN(C(C)(C)c1ccccc1)CC2 [Example 1.207] |
| ≤ 5 nM | CCc1cccc(CC)c1-n1nc2c(c1-c1cc(F)c(NC(N)=O)cc1F)CN(C(C)c1ccccc1C(F)(F)F)CC2 (centres unmarked) [Example 1.208] |
| 50 to 500 nM | Cc1cccc(OCC(C)C)c1-n1nc2c(c1-c1cc(F)c(NC(N)=O)cc1F)CN(C(C)(C)C#N)CC2 [Example 1.209] |
| ≤ 5 nM | Cc1cccc(OCC(C)C)c1-n1nc2c(c1-c1cc(F)c(NC(N)=O)cc1F)CN(c1ncc(Cl)cc1Cl)CC2 [Example 1.210] |
| ≤ 5 nM | Cc1cc(NC(N)=O)c(F)cc1-c1c2c(nn1-c1c(C)cccc1OCC(C)C)CCN(c1ncc(C(F)(F)F)cc1F)C2 [Example 1.211] |
| ≤ 5 nM | CCc1cccc(CC)c1-n1nc2c(c1-c1cc(F)c(NC(N)=O)cc1F)CN(C(C)(C)CC)CC2 [Example 1.212] |
| ≤ 5 nM | Cc1cnc(N2CCc3nn(-c4c(C)cccc4OCC(C)C)c(-c4ccc(NC(N)=O)c(F)c4)c3C2)c(Cl)c1 [Example 1.213] |
| ≤ 5 nM | CCC(C)(C)N1CCc2nn(-c3c(C)cccc3OCC(C)C)c(-c3cc(F)c(NC(N)=O)cc3F)c2C1 [Example 1.214] |
| 5 to 50 nM | CCc1cccc(CC)c1-n1nc2c(c1-c1ccc(NC(N)=O)c(F)c1)CN(C(C)CC(C)C)CC2 (centres unmarked) [Example 1.215] |
| 5 to 50 nM | CCc1cccc(CC)c1-n1nc2c(c1-c1ccc(NC(N)=O)c(F)c1)CN(C(C)C1CCCC1)CC2 (centres unmarked) [Example 1.216] |

| IC50 | Structure (SMILES) |
| --- | --- |
| ≤ 5 nM | Cc1cccc(OCC(C)C)c1-n1nc2c(c1-c1cc(F)c(NC(N)=O)cc1Cl)CN(c1ncc(C(F)(F)F)cc1F)CC2 [Example 1.217] |
| ≤ 5 nM | Cc1cccc(OCC(C)C)c1-n1nc2c(c1-c1ccc(NC(N)=O)c(F)c1)CN(c1ncc(C(C)C)cc1F)CC2 [Example 1.218] |
| 5 to 50 nM | CCc1cccc(CC)c1-n1nc2c(c1-c1ccc(NC(N)=O)c(F)c1)CN(C(CC)CC)CC2 [Example 1.219] |
| ≤ 5 nM | C=C(C)c1cnc(N2CCc3nn(-c4c(C)cccc4OCC(C)C)c(-c4ccc(NC(N)=O)c(F)c4)c3C2)c(F)c1 [Example 1.220] |
| 50 to 500 nM | CCc1cccc(CC)c1-n1nc2c(c1-c1ccc(NC(N)=O)c(F)c1)CN(C(C)(C)CC)CC2 [Example 1.221] |
| ≤ 5 nM | Cc1cccc(OCC(C)C)c1-n1nc2c(c1-c1ccc(NC(N)=O)c(F)c1Cl)CN(c1ncc(C(F)(F)F)cc1F)CC2 [Example 1.222] |
| ≤ 5 nM | CCc1cccc(CC)c1-n1nc2c(c1-c1ccc(NC(N)=O)c(F)c1)CN(C(C)C1CCCCC1)CC2 (centres unmarked) [Example 1.223] |
| ≤ 5 nM | Cc1cnc(N2CCc3nn(-c4c(C)cccc4OCC(C)C)c(-c4ccc(NC(N)=O)c(F)c4)c3C2)c(F)c1 [Example 1.224] |
| ≤ 5 nM | Cc1cccc(OCC(C)C)c1-n1nc2c(c1-c1ccc(NC(N)=O)c(F)c1)CN(C(c1ccccc1)C(F)(F)F)CC2 (centres unmarked) [Example 1.225] |
| > 500 nM | Cc1cccc(OCC(C)C)c1-n1nc2c(c1-c1ccc(NC(N)=O)c(C#N)c1)CN(c1ncc(C(F)(F)F)cc1F)CC2 [Example 1.226] |
| ≤ 5 nM | CCc1cccc(CC)c1-n1nc2c(c1-c1ccc(NC(N)=O)c(F)c1)CN(c1ncc(Cl)cc1Cl)CC2 [Example 1.227] |
| ≤ 5 nM | Cc1cccc(OCC(C)C)c1-n1nc2c(c1-c1ccc(NC(N)=O)c(F)c1)CN(c1ncc(F)cc1Cl)CC2 [Example 1.228] |
| 5 to 50 nM | Cc1cccc(OCC(C)C)c1-n1nc2c(c1-c1ccc(NC(N)=O)c(F)c1)CN(S(=O)(=O)c1ccccc1C(F)(F)F)CC2 [Example 1.229] |
| 5 to 50 nM | CCC(C)(C)N1CCc2nn(-c3c(C)cccc3OCC(C)C)c(-c3ccc(NC(N)=O)c(F)c3)c2C1 [Example 1.230] |
| 5 to 50 nM | CCCCN1CCc2nn(-c3c(C)cccc3OCC(C)C)c(-c3ccc(NC(N)=O)c(F)c3)c2C1 [Example 1.231] |
| ≤ 5 nM | Cc1cccc(OCC(C)C)c1-n1nc2c(c1-c1ccc(NC(N)=O)c(F)c1)CN(C(C)C1CCCCC1)CC2 (centres unmarked) [Example 1.232] |
| > 500 nM | Cc1cccc(OCC(C)C)c1-n1nc2c(c1-c1ccc(NC(N)=O)c(F)c1)CN(Cc1nccn1C)CC2 [Example 1.233] |
| 5 to 50 nM | Cc1cccc(OCC(C)C)c1-n1nc2c(c1-c1ccc(NC(N)=O)c(F)c1)CN(Cc1nccs1)CC2 [Example 1.234] |
| 5 to 50 nM | CCc1cccc(CC)c1-n1nc2c(c1-c1ccc(NC(N)=O)c(F)c1)CN(C(C)CC)CC2 (centres unmarked) [Example 1.235] |
| 5 to 50 nM | Cc1cccc(OCC(C)C)c1-n1nc2c(c1-c1ccc(NC(N)=O)c(F)c1)CN(S(=O)(=O)c1ccccc1)CC2 [Example 1.237] |
| 5 to 50 nM | Cc1cccc(OCC(C)C)c1-n1nc2c(c1-c1ccc(NC(N)=O)c(F)c1)CN(C(=O)C1CCCC1)CC2 [Example 1.238] |

From US11478460B2, “Diaryl substituted 6,5-fused ring compounds as C5aR inhibitors” (CHEMOCENTRYX, INC., priority 2017, dated 2022)
